Data from article PMC10746543, “Design principles for cyclin K molecular glue degraders” (Nature Chemical Biology, 2023).
“And” between values parts separate entries of the source, which are not always exact repeats. Equal entries are not always repeated.

Target: T1, CDK9–cyclin T (Homo sapiens, UniProt P50750)
T1 construct: purchased Thermo Fisher
Experiment: Lanthascreen kinase binding assay, CDK9
Details: for IC50: Supplementary Table 2, read-out: Lanthascreen IC50 [nM] CDK9; for Lanthascreen TR-FRET signal (raw ratio), sheet CDK9: duplicates
Protocol: Lanthascreen experiments were performed using commercially available reagents (Thermo Fisher) and according to the manufacturer’s instructions.

[1] = compound 0.038147 nM, second titration set (r13)
[2] = compound 0.152588 nM, second titration set (r13)
[3] = compound 0.610352 nM, second titration set (r13)
[4] = compound 1.02544 nM, first titration set (r1)
[5] = compound 3.15521 nM, first titration set (r1)
[6] = compound 9.46563 nM, first titration set (r1)
[7] = compound 9.76563 nM, second titration set (r13)
[8] = compound 31.5521 nM, first titration set (r1)
[9] = compound 39.0625 nM, second titration set (r13)
[10] = compound 99.3891 nM, first titration set (r1)
[11] = compound 156.25 nM, second titration set (r13)
[12] = compound 315.521 nM, first titration set (r1)
[13] = compound 625 nM, second titration set (r13)
[14] = compound 2500 nM, second titration set (r13)
[15] = compound 3155.21 nM, first titration set (r1)
[16] = compound 10000 nM, second titration set (r13)
[17] = compound 10002 nM, first titration set (r1)

T1 sequence (P50750 whole entry): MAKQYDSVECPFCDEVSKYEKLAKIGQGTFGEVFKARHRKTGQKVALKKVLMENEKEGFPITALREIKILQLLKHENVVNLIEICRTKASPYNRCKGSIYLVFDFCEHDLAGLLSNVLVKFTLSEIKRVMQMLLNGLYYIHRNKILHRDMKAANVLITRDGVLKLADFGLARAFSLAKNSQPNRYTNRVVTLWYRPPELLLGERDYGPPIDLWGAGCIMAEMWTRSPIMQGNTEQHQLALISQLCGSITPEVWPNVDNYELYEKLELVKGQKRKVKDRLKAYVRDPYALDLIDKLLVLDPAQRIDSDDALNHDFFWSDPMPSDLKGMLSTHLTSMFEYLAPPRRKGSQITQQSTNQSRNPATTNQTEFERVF
T1 sequence (O60563 whole entry partner): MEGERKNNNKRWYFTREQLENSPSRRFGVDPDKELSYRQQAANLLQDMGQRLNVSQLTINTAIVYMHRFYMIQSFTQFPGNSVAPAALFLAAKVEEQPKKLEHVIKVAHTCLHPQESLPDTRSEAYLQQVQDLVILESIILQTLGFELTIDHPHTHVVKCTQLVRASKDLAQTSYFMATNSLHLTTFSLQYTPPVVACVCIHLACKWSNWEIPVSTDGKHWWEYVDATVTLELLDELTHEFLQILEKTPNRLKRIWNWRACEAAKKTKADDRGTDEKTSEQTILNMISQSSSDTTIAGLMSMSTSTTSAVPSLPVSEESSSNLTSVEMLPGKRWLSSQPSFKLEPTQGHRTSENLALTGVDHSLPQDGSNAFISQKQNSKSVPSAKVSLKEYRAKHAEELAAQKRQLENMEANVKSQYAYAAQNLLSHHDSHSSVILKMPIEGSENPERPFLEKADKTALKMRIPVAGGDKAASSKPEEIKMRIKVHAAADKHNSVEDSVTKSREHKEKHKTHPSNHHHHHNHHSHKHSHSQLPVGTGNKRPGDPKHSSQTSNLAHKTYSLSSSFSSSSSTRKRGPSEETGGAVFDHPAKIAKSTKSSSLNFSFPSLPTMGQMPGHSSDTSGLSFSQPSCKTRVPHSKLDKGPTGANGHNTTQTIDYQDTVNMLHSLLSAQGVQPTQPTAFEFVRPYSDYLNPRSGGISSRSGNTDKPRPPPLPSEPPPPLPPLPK

IC50 [nM] | Lanthascreen TR-FRET signal (raw ratio), sheet CDK9 [1] | Lanthascreen TR-FRET signal (raw ratio), sheet CDK9 [2] | Lanthascreen TR-FRET signal (raw ratio), sheet CDK9 [3] | Lanthascreen TR-FRET signal (raw ratio), sheet CDK9 [4] | Lanthascreen TR-FRET signal (raw ratio), sheet CDK9 [5] | Lanthascreen TR-FRET signal (raw ratio), sheet CDK9 [6] | Lanthascreen TR-FRET signal (raw ratio), sheet CDK9 [7] | Lanthascreen TR-FRET signal (raw ratio), sheet CDK9 [8] | Lanthascreen TR-FRET signal (raw ratio), sheet CDK9 [9] | Lanthascreen TR-FRET signal (raw ratio), sheet CDK9 [10] | Lanthascreen TR-FRET signal (raw ratio), sheet CDK9 [11] | Lanthascreen TR-FRET signal (raw ratio), sheet CDK9 [12] | Lanthascreen TR-FRET signal (raw ratio), sheet CDK9 [13] | Lanthascreen TR-FRET signal (raw ratio), sheet CDK9 [14] | Lanthascreen TR-FRET signal (raw ratio), sheet CDK9 [15] | Lanthascreen TR-FRET signal (raw ratio), sheet CDK9 [16] | Lanthascreen TR-FRET signal (raw ratio), sheet CDK9 [17] | Structure (SMILES)
3660 | – | – | – | – | – | – | – | – | – | – | – | – | – | – | – | – | – | Cn1cc(-n2cnc3c(NCc4nc5cc(Cl)c(Cl)cc5[nH]4)nc(N4CCOCC4)nc32)cn1 [SR-4835]
1110 | 0.01383 and 0.01355 | 0.0139 and 0.01441 | 0.01347 and 0.01396 | 0.01429 and 0.01561 | 0.01467 and 0.01402 | 0.01439 and 0.01388 | 0.01427 and 0.01339 | 0.01459 and 0.0177 | 0.01365 and 0.01337 | 0.01319 and 0.01787 | 0.01319 and 0.01335 | 0.01154 and 0.01497 | 0.01033 and 0.01039 | 0.00843 and 0.008233 | 0.01003 and 0.01129 | 0.006379 and 0.005879 | 0.009746 and 0.009366 | O=C(CSc1nnc2c(n1)[nH]c1ccccc12)Nc1ccc(Cl)cn1 [dCeMM2]
3020 | 0.01294 and 0.01365 | 0.0141 and 0.01339 | 0.0143 and 0.01462 | 0.01545 and 0.0134 | 0.01353 and 0.01504 | 0.01222 and 0.01325 | 0.01396 and 0.01385 | 0.0135 and 0.01525 | 0.0129 and 0.01348 | 0.01289 and 0.01231 | 0.01372 and 0.01352 | 0.01199 and 0.01288 | 0.01085 and 0.01132 | 0.0085 and 0.007435 | 0.006467 and 0.007084 | 0.00463 and 0.004475 | 0.0026 and 0.00423 | O=C(CSc1nc2ccccc2[nH]1)Nc1ccc(Cl)cn1 [dCeMM3]
2460 | 0.01401 and 0.01443 | 0.01297 and 0.01342 | 0.01434 and 0.01401 | 0.01509 and 0.01456 | 0.01409 and 0.01238 | 0.01419 and 0.01391 | 0.01424 and 0.01466 | 0.01363 and 0.01274 | 0.01378 and 0.01422 | 0.01334 and 0.01404 | 0.01404 and 0.01353 | 0.01521 and 0.01465 | 0.01264 and 0.01274 | 0.01019 and 0.009296 | 0.008036 and 0.01025 | 0.006352 and 0.006436 | 0.007034 and 0.007071 | Cc1ccc(C(=O)N2CSCC2C(=O)Nc2ncc(C)s2)o1 (stereo not shown) [dCeMM4]
